Experimental data: US20060205642A1, “Oral methods of treatment using proANF peptides” (priority 2005, published 2006)
Entries after “also recorded” stand apart in the source; their conditions may differ.

Assay: Infusion into healthy human subjects
Type: in vivo
Details: healthy humans
Experimental: Infusion of these peptides into healthy human subjects was performed as follows: Human pro-ANF 1-30, pro-ANF 31-67, and pro-ANF 79-98, and hANF (i.e., pro-ANF 99-126, were synthesized by Peninsula Laboratories (Belmont, Calif.). High pressure liquid chromatography (HPLC) analysis was performed on a sample of each of the four peptides to ensure purity. The peptides were dissolved in a sterile 0.9% saline solution to a concentration of 100 μg/ml and dispensed in 2 and 5 ml aliquots into sealed sterile vials. At the time of dispensing, randomly selected vials were tested for pyrogens and sterility. Prior to labeling the vials, the actual peptide content of the dispensed solution were determined by direct radioimmunoassay to account for any possible absorption of the respective peptides to the walls of the vials. All vials were then stored at −80° C. until thawed for individual study.
Normal healthy subjects were chosen on the basis of age (between 20 and 50 years), physical examination and biochemical screenings. The subjects consumed their normal diets prior to testing. The subjects fasted overnight and were tested in the morning in the seated position. Intravenous catheters were placed bilaterally for the administration of pro-hANF 1-30, pro-hANF 31-67, pro-hANF 79-98 and hANF (pro-hANF 99-126) and for blood sampling. After completion of a 45-minute equilibration period, there were three […] phases of the study: baseline, experimental infusion (60 minutes) and recovery (3 hours). The baseline phase consisted of two 30 minute urine collection periods, the experimental phase consisted of three 20 minute urine and plasma collection periods, and the recovery phase consisted of two 30 minute urine and plasma collection periods each hour for three hours post-infusion. Urine output was replaced on a milliliter per milliliter basis throughout the study by administering oral water or orange juice. Urine samples were obtained by voiding at the designated collection periods.
The 36 subjects were divided into 6 groups. One group (i.e., the control group) received a placebo infusion of 0.9% sodium chloride during the experimental infusion phase. […] The four remaining groups of six subjects each received human pro-hANF 1-30, pro-hANF 31-67, pro-hANF 79-98 and HANF. The four groups received the peptides by continuous infusion at the rate of 0.1 μg/kg per minute. The volume administered per hour during the experimental infusion phase was 10 ml for all four peptides and the placebo. All infusions were given by a constant-rate infusion pump, with the final concentrations of prohANFs adjusted for the subjects' body weight. The subjects heart rate and cuff blood pressure were taken at 5 minute intervals throughout the study. The excreted urine was analyzed for sodium concentration.

In the case of “H-EVVPPQVLSEPNEEAGAALSPLPEVPPWTGEVSPAQR-OH [proANF 31-67]”, the “duration of sodium excreting effects compared to ANF” value is reported as “significantly (P<0.001) prolonged compared to ANF; also recorded: last significantly (P<0.001) longer than ANF's effects”, the “increase in urine volume (in words)” value (100 ng/kg body wt per minute for 1 hour i.v., n=6, ANOVA) is reported as “significant” and the “sodium excretion (in words)” value (100 ng/kg body wt per minute for 60 minutes, vs baseline) is reported as “significantly (P<0.05) increased”. For the same substance, the “systolic and diastolic blood pressures” value (100 ng/kg body wt per minute i.v. for 60 min, n=6) was “significant; also recorded: lowers blood pressure the most”.
